Assay results reported in patent publication EP4763837A1, “PHOTOCHROMIC COMPOUND, CURABLE COMPOSITION, OPTICAL ARTICLE, LENS, AND EYEGLASSES” (TOKUYAMA CORPORATION, priority 2023, dated 2025).
“And” between values parts separate entries of the source, which are not always exact repeats. Identical values can stand only once.

Experiments:
Assay type in all cases: physicochemical
[1] = Photochromic property of photochromic laminate made by coating method; conditions: for Residual ratio / Color developing density at 23°C: laminate by coating method; for Residual ratio: A96/A0 x 100 after 96 hours accelerated degradation, xenon weather meter X25; for Color developing density at 23°C: absorbance difference after 240 seconds irradiation at the maximum absorption wavelength of the same line
From the text: First, the photochromic compound obtained in Example 1, a photoinitiator, and a polymerizable compound were mixed to obtain a curable composition.
The polymerizable compound was a combination of the following radical polymerizable monomers:
Polyethylene glycol dimethacrylate (average molecular weight: 736): 42 parts by mass • Polyethylene glycol dimethacrylate (average molecular weight: 536): 12 parts by mass • Trimethylolpropane methacrylate: 38 parts by mass γ-Methacryloyloxypropyltrimethoxysilane: 2 parts by mass Glycidyl methacrylate: 1 part by mass.
Note that, in the curable composition, the photochromic compound was added in an amount of 0.25 mmol taking a total amount of the radical polymerizable monomers as 100 g.
Phenylbis(2,4,6-trimethylbenzoyl)phosphine oxide (photoinitiator: Omnirad 819): 0.3 parts by mass Ethylene bis(oxyethylene) bis[3-(5-tert-butyl-4-hydroxy-m-tolyl) propionate] (stabilizer, Irganox 245): 1 part by mass Bis(1,2,2,6,6-pentamethyl-4-piperidyl)sebacate: 3 parts by mass Leveling agent (L-7001) manufactured by DuPont Toray Specialty Materials K.K.: 0.1 parts by mass.
Using this curable composition, a photochromic laminate was obtained by a lamination method including polymerization as follows.
First, a thiourethane plastic lens with a center thickness of 2 mm and a refractive index of 1.60 was prepared as an optical substrate. Note that, the thiourethane plastic lens had been alkaline-etched in a 10% sodium hydroxide aqueous solution at 50°C for 5 minutes in advance, and then thoroughly washed with distilled water.
A spin coater (1H-DX2, manufactured by MIKASA CO., LTD) was used to coat a surface of the above-mentioned plastic lens with a moisture-curing primer (product name: TR-SC-P, manufactured by Tokuyama Corporation) at a rotation speed of 70 rpm for 15 seconds, followed by 1000 rpm for 10 seconds. Then, about 2 g of the photochromic curable composition obtained above was spin-coated at a rotation speed of 60 rpm for 40 seconds, followed by 600 rpm for 10 to 20 seconds so as to achieve a photochromic coating layer with a thickness of 40 µm.
The lens of which surface had been coated with the photochromic curable composition (photochromic coating layer) was irradiated with light for 90 seconds in a nitrogen gas atmosphere using a metal halide lamp with an output of 200 mW/cm^2 to cure the coating. The resultant was then further heated at 110°C for 1 hour to produce a photochromic laminate with a photochromic layer.
Photochromic laminates were produced using the photochromic compounds obtained in Examples 2 to 20 in the same manner as in Example 21.
Photochromic laminates were obtained using photochromic compounds represented by Formulae (A) to (D) below in the same manner as in Example 21. [drawing 89] [drawing 90] [drawing 91] [drawing 92] [drawing 93]
The resulting photochromic laminates were evaluated by the below-mentioned methods. • (1) Photochromic property • [1] Maximum absorption wavelength (λmax): This is the maximum absorption wavelength after color development determined by a spectrophotometer manufactured by Otsuka Electronics Co., Ltd. (instantaneous multichannel photo detector MCPD3000) and was used as an index of a color tone upon color development. • [2] Color developing density at 23°C (A23): This is a difference between an absorbance {ε(240)} after irradiation with light at 23°C for 240 seconds and an absorbance ε(0) when not irradiated with light at the maximum absorption wavelength and was used as an index of a color developing density. The higher this value is, the better a photochromic property is. • [3] Color fading half-life at 23°C [τ1/2 (sec).)]: This is a period of time taken by an absorbance at the maximum absorption wavelength of a sample to decrease to 1/2 of {ε(240)-ε(0)} when irradiation is stopped after irradiation with light at 23°C for 240 seconds, and was used as an index of a color fading rate. The shorter this period of time is, the faster the color fading rate is. • [4] […]

[2] = Solubility of photochromic compound in polymerizable compounds; parameters: key: 1: No haze is seen when checked under transmission of light, and the sample is completely dissolved.; 2: A very thin haze is seen to the extent that it can be seen under transmission of light.; 3: A thin haze that can be seen under transmission of light is seen.; 4: A haze can be seen even without transmission of light; conditions: 35 µmol/g in radical polymerizable compound composition of Example 21, 65 to 70°C; for Dissolution for 15 min / Dissolution for 30 min / Dissolution for 45 min: stirring and ultrasonic irradiation; for Dissolution for 1 hour: head reads 60 min in Tables 8 to 14
Procedure: The photochromic compounds according to Examples and Comparative examples shown in Table 5 were evaluated for solubility in polymerizable compounds.
Specifically, a sample was prepared by adding each of the photochromic compounds to the composition, which consisted of a radical polymerizable compound, among the curable compositions used in Example 21.
Note that, this test was performed using "YOKAI-KUN USS-1" manufactured by NIHONSEIKI KAISHA LTD. under the following conditions: • Dissolution temperature: 65 to 70°C • Stirring condition: Stirring dial of 5. Ultrasonic irradiation condition: Irradiation interval of 3 sec.
Dissolution was checked every 15 minutes up to 1 hour later, the sample was visually checked by transmitting light through the sample, and a degree of dissolution was evaluated according to the following four evaluation criteria.
• 1: No haze is seen when checked under transmission of light, and the sample is completely dissolved. • 2: A very thin haze is seen to the extent that it can be seen under transmission of light. • 3: A thin haze that can be seen under transmission of light is seen. • 4: A haze can be seen even without transmission of light.
A shorter time required for the evaluation result to be 1 means higher solubility.

[3] = Photochromic property of photochromic cured product made by kneading method
Procedure: The resulting photochromic laminates were evaluated by the below-mentioned methods. • (1) Photochromic property • [1] Maximum absorption wavelength (λmax): This is the maximum absorption wavelength after color development determined by a spectrophotometer manufactured by Otsuka Electronics Co., Ltd. (instantaneous multichannel photo detector MCPD3000) and was used as an index of a color tone upon color development. • [2] Color developing density at 23°C (A23): This is a difference between an absorbance {ε(240)} after irradiation with light at 23°C for 240 seconds and an absorbance ε(0) when not irradiated with light at the maximum absorption wavelength and was used as an index of a color developing density. The higher this value is, the better a photochromic property is. • [3] Color fading half-life at 23°C [τ1/2 (sec).)]: This is a period of time taken by an absorbance at the maximum absorption wavelength of a sample to decrease to 1/2 of {ε(240)-ε(0)} when irradiation is stopped after irradiation with light at 23°C for 240 seconds, and was used as an index of a color fading rate. The shorter this period of time is, the faster the color fading rate is. • [4] Residual ratio (A96/A0 x 100): The resulting photochromic plastic lens was subjected to accelerated degradation for 96 hours using a xenon weather meter X25 manufactured by Suga Test Instruments Co., Ltd. Color developing densities were then evaluated before and after a test, and a color developing density before the test (A0) and a color developing density after the test (A96) were measured. A ratio (A96/A0) was determined as a residual ratio and was used as an index of color development durability. The higher the residual ratio is, the more durable the color development is.
First, the photochromic compound obtained in Example 1, an additive, and a polymerizable compound were mixed to obtain a curable composition. The polymerizable compound was a combination of the following polymerizable monomers: • · 1,3-Bis(isocyanatomethyl)cyclohexane: 36.7 parts by mass • · Pentaerythritol tetrakis(3-mercaptopropionate): 39.4 parts by mass • · Polyoxyethylene polyoxypropylene lauryl ether (WONDERSURF 140 manufactured by AOKI OIL INDUSTRIAL Co., Ltd.): 17.4 parts by mass • · 1-Decanethiol: 2.8 parts by mass • · RX-1 prepared by the method described in Patent Document 14: 3.8 parts by mass
Note that, in the curable composition, the photochromic compound was added in an amount of 0.106 mmol taking a total amount of the polymerizable monomers as 100 g.
The following additives were used: • · Dimethyltin dichloride: 0.05 parts by mass • · Irganox 245: 0.1 parts by mass • · 2-Ethylhexyl […]: 0.6 parts by mass
After the thus-prepared curable composition was thoroughly defoamed, it was poured into a glass mold with a gap of 1 mm and polymerized by casting polymerization. […] After the polymerization, the resulting cured product was removed from the glass mold to obtain a photochromic cured product with a thickness of 1 mm. The resulting photochromic cured product was evaluated in the same manner as for Example 23.
Photochromic cured products were produced using the photochromic compounds shown in Table 4 in the same manner as in Example 50.

Structure (SMILES) | Color fading half-life at 23°C [1] [min] | Residual ratio [1] | Dissolution for 15 min [2] | Dissolution for 30 min [2] | Dissolution for 45 min [2] | Dissolution for 1 hour [2] | Color developing density at 23°C [1] | Residual ratio ([3]; A96/A0 x 100 after 96 hours accelerated degradation, xenon weather meter X25) | Color developing density at 23°C ([3]; absorbance difference after 240 seconds irradiation at the maximum absorption wavelength of the same line)
CCCOc1ccc(C2(c3ccc(OC)cc3)C=Cc3c4c(c5cc(OC)c(OC)cc5c3O2)-c2ccc(N(C)c3ccccc3)cc2C4(CC)CCC)cc1 (stereo not shown) [Formula (87-1)] | 2.65 | 64% | 3 | 2 | 1 | 1 |  |  | 
COc1ccc(C2(c3ccc(OC)cc3)C=Cc3c4c(c5cc(N6CCOCC6)c(OC)cc5c3O2)-c2ccccc2C42CCCCCCC2)cc1 [Formula (D), reference compound] | 3.13 | 51% and 53% | 4 | 3 | 2 | 1 | 1.61 - and 0.89 - |  | 
CCC1(C)c2cc(OC)ccc2-c2c1c1c(c3cc(OC)c(Sc4c(C)cccc4C)cc23)OC(c2ccc(OC)cc2)(c2ccc(N3CCOCC3)cc2)C=C1 (stereo not shown) [Formula (74-2)] | 1.5 | 64% | 4 | 3 | 2 | 1 |  |  | 
CCCCC1(C(C)CC)c2ccccc2-c2c1c1c(c3cc(OC)c(N4CCOCC4)cc23)OC(c2ccc(OC)cc2)(c2ccc(OC)cc2)C=C1 (stereo not shown) [Formula (20-1)] |  | 48% and 44% | 3 | 2 | 1 | 1 |  |  | 
CCCCC1(CC)c2cc(OC)ccc2-c2c1c1c(c3cc(OC)c(Sc4c(C)cccc4C)cc23)OC(c2ccc(OC)cc2)(c2ccc(N3CCOCC3)cc2)C=C1 (stereo not shown) [Formula (77-1)] |  | 67% | 3 | 3 | 1 | 1 |  |  | 
CCCC1(CC)c2cc(C)ccc2-c2c1c1c(c3cc(C)c(-c4ccc(OC)cc4)cc23)OC(c2ccc(OC)cc2)(c2ccc(N(c3ccccc3)c3ccccc3)cc2)C=C1 (stereo not shown) [Formula (12-2)] |  |  |  |  |  |  |  | 66% and 65% | 0.64 - and 1.23 -
CCCC1(CC)c2ccccc2-c2c1c1c(c3cc(OC)c(-c4c(OC)cc(OC)cc4OC)cc23)OC(c2ccc(OC)cc2)(c2ccc(N(c3ccccc3)c3ccccc3)cc2)C=C1 (stereo not shown) [Formula (78-2)] |  | 64% | 3 | 2 | 1 | 1 |  |  | 
CCCC1(CC)c2cc(C)ccc2-c2c1c1c(c3cc(OC)c(-c4ccc(N5CCOCC5)cc4)cc23)OC(c2ccc(OC)cc2)(c2ccc(N3CCOCC3)cc2)C=C1 (stereo not shown) [Formula (79-2)] | 1.3 |  | 3 | 2 | 1 | 1 |  |  | 
CCCC1(CC)c2cc(OC)ccc2-c2c1c1c(c3cc(OC)ccc23)OC(c2ccc(OC)cc2)(c2ccc(N3CCOCC3)cc2)C=C1 (stereo not shown) [Formula (91-1)] | 1.25 | 57% | 4 | 3 | 1 | 1 |  |  | 
CCCCC1(CC)c2ccccc2-c2c1c1c(c3cc(OC)c(N(C)c4ccccc4)cc23)OC(c2ccc(OC)cc2)(c2ccc(OC)cc2)C=C1 (stereo not shown) [Formula (80-2)] | 1.17 | 79% | 3 | 2 | 1 | 1 | 1.09 - |  | 
CCCCC1(C)c2cc(N(C)c3ccccc3)ccc2-c2c1c1c(c3cc(OC)c(OC)cc23)OC(c2ccc(OC)cc2)(c2ccc(OCCC)cc2)C=C1 (stereo not shown) [Formula (73-2)] |  | 62% | 3 | 3 | 2 | 1 |  |  | 
CCCCCCC1(C)c2cc(OC(F)(F)F)ccc2-c2c1c1c(c3cc(OC)ccc23)OC(c2ccc(OC)cc2)(c2ccc(OC)cc2)C=C1 (stereo not shown) [Formula (90-1)] |  | 64% | 3 | 2 | 1 | 1 |  |  | 
